From article PMC6934184, “Selective DNA-PKcs inhibition extends the therapeutic index of localized radiotherapy and chemotherapy” (The Journal of Clinical Investigation, 2019)

Tested on: A549 subcutaneous xenografts
Experiment: subcutaneous A549 xenograft with localized radiation
Assay type: in vivo, mouse
Details: NU5455 30 mg/kg oral 30 min before 10 Gy
Protocol: Subcutaneous non–small cell lung cancer xenografts were generated in CD-1 nude or BALB/c nude mice using A549 and Calu-6 cells, respectively, as previously described ([53]). When tumors reached 100 mm^3, mice were randomized into 4 groups (n = 7–9 per group) to receive (a) vehicle (orally) 30 minutes before mock radiation, (b) NU5455 (30 mg/kg orally) 30 minutes before mock radiation, (c) targeted tumor radiation at a single dose of 3.3 or 10 Gy, or (d) NU5455 (30 mg/kg orally) 30 minutes before 3.3 Gy or 10 Gy targeted tumor radiation. For targeted irradiation of subcutaneous tumors, anesthetized mice were restrained in a lead-shielded container with only the tumor exposed, and x-ray radiation applied using an RS320 irradiation system (Gulmay Medical) at a dose rate of 1.82 Gy/min. […]
NSCLC subcutaneous xenografts were generated as previously described ( 53). […] Mouse weights and tumor volumes (1/2 x length x width x depth) were measured three times a week.
Targeted radiotherapy in subcutaneous and orthotopic NSCLC xenograft models When subcutaneous xenografts reached 100 mm3, mice were randomized into four groups (n = 7 - 11/group): (i) N-Methyl-2-pyrrolidone (NMP): 30% Encapsin : PEG400 (1:6:3 v/v/v) vehicle p.o. 30 minutes prior to mock radiation. […] The remaining mice were monitored for tumor growth until the sizes of tumo rs reached 400 mm 3 or up to 38 days after initiation of […]

CN(C(=O)CN1CCOCC1)c1ccc2sc3c(-c4cccc5c(=O)cc(N6CC7CCC(C6)O7)oc45)cccc3c2c1 [NU5455]
antitumor activity with radiation: enhanced the antitumor activity
